Measurements published in US20260306527A1, “PRMT INHIBITOR COMPOUNDS AND THE USES THEREOF” (Purdue Research Foundation, priority 2023, published 2026).
pIC50: −log10 of the molar value. Entries after “also recorded” stand apart in the source; their conditions may differ.

Columns and labels:
PRMT8 [1] = target: T1, PRMT8 (Homo sapiens, UniProt Q9NR22); test: radioactive assay (Reaction Biology Corp.), inhibition of PRMT8; format: biochemical
Protocol: (§1) Next, the inhibition activity of the library was investigated for five PRMT members from type I PRMTs.
(§2) The PRMT 4, 6 and 8 methylation assays were performed by Reaction Biology corp.

PRMT4 [2] = target: T2, PRMT4 (Homo sapiens, UniProt Q86X55); test: radioactive assay (Reaction Biology Corp.), inhibition of PRMT4; format: biochemical
T2 sequence (Q86X55 1-608): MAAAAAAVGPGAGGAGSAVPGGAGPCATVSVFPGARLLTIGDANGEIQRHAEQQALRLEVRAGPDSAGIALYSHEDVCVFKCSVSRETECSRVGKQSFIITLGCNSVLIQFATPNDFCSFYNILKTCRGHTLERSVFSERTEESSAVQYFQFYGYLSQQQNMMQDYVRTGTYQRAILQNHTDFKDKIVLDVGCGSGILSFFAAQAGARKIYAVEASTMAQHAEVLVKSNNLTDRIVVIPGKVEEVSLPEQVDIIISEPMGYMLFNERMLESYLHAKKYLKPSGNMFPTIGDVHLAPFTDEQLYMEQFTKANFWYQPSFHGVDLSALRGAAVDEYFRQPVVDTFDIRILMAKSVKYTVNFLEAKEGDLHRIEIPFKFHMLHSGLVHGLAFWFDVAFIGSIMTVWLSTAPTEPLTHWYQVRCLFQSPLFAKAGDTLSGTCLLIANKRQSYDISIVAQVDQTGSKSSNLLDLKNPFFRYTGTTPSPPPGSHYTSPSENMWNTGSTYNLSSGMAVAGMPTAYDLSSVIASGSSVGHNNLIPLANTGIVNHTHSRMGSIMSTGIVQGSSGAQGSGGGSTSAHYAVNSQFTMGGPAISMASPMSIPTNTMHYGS
Protocol: as §1, §2

PRMT3 [3] = target: T3, PRMT3 (Homo sapiens, UniProt O60678); test: SAHH-coupled fluorescence assay, inhibition of PRMT3; format: biochemical; set-up: PRMT3 (residues 211-531) was cloned into the pET28a-MHL expression vector; tag of the pET28a-MHL vector (not described); made in house; host or cells: Escherichia coli BL21(DE3)
Method in brief: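 Coupled SAHH/ThioGlo4 fluorescence read-out (ex 380 nm, em 505 nm) of PRMT3 (0.25 μM) methylation with 30 μM AdoMet and 5 μM SAHH. Buffer was 20 mM Tris pH 7.5 with 0.01% Triton X-100. Run in duplicate.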
Target sequence in this assay (O60678 211-531): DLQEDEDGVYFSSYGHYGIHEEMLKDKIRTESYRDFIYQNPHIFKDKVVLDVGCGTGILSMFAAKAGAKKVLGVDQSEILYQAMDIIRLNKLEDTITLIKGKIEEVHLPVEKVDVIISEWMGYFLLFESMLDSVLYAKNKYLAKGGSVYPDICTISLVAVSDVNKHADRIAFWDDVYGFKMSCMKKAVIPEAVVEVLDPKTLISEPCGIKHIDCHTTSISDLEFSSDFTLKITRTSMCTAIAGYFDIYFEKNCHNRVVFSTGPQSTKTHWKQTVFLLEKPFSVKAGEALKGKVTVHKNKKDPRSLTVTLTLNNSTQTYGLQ

PRMT6 [4] = target: T4, PRMT6 (Homo sapiens, UniProt Q96LA8); test: radioactive assay (Reaction Biology Corp.), inhibition of PRMT6; format: biochemical
Protocol: as §1, §2

PRMT4/7 = settings: previously reported; cited from earlier work
PRMT1 [5] = target: T5, PRMT1 (Homo sapiens, UniProt Q99873); test: SAHH-coupled fluorescence assay, inhibition of PRMT1; format: biochemical
T5 construct: made in house
Method in brief: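 PRMT1 (0.1 μM) was run with 10 μM AdoMet, 5 μM SAHH and 10 μM ThioGlo4 in 2.5 mM HEPES pH 7.0, 25 mM NaCl, 25 μM EDTA, 50 μM TCEP and 0.01% Triton X-100. Fluorescence (ex 400/em 465 nm) was monitored for 15 min. Assays were done in duplicate.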

PRMT4/5 = test: inhibition of PRMT4/5 (figure legend); format: biochemical
SETD7 = target: T6, SETD7 (Homo sapiens, UniProt Q8WTS6); test: selectivity, SAHH-coupled assay SETD7; format: biochemical; settings: 100 μM
T6 construct: H3-21 peptide as substrate
Protocol: (§3) A fluorescence-based SAHH-coupled assay was applied to study the effect of the compound on methyltransferase activity of NTMT1, SETD7, G9a, NNMT, tbPRMT7 and SAHH. For NTMT1, the assay was performed in a final well volume of 100 μL: 25 mM Tris (pH=7.5), 50 mM KCl, 0.01% Triton X-100, 5 μM.
(§4) SAHH, 0.1 μM NTMT1, 3 μM AdoMet, and 10 μM ThioGlo4. After incubation for 10 min with the inhibitor, reactions were initiated by the addition of 0.5 μM GPKRIA peptide, and the reaction was monitored for 15 min. For SETD7, the assay was performed in a final well volume of 100 μL: 25 mM potassium phosphate buffer (pH=7.6), 0.01% Triton X-100, 5 μM SAHH, 1 μM SETD7, 2 μM AdoMet, and 10 μM ThioGlo1. After incubation for 10 min with the inhibitor, reactions were initiated by the addition of 90 μM H3-21 peptide, and the reaction was monitored for 15 min. […] After incubation for 10 min with the inhibitor, reactions were initiated by the addition of 10 μM nicotinamide, and the reaction was monitored for 18 min. […] After incubation for 10 min with the inhibitor, reactions were initiated by the addition of 60 μM H4-21 peptide, and the reaction was monitored for 15 min. […]
(§5) All experiments were performed in duplicate. Fluorescence was monitored on a BMG CLARIOstar microplate reader with excitation at 380 nm and emission at 505 nm. […]

SAHH = test: selectivity, SAHH; format: biochemical; settings: 100 μM
Protocol: The effect of the inhibitors on the coupled enzyme, SAHH, was also evaluated. The assay was performed in a final well volume of 100 μL: 25 mM Tris (pH=7.5), 50 mM KCl, 0.01% Triton X-100, 0.1 μM SAHH, and 15 μM ThioGlo1. After incubation for 10 min with the compound, 0.5 μM SAH was added to initiate the reactions.
All experiments were performed in duplicate. Fluorescence was monitored on a BMG CLARIOstar microplate reader with excitation at 380 nm and emission at 505 nm.
To examine the selectivity, the inhibition of YD1290 on four inhouse methyltransferases, including protein N-terminal methyltransferase 1 (NTMT1), nicotinamide N-methyltransferase (NNMT), and two protein lysine methyltransferases PKMT (G9a and SETD7) were tested.

NNMT = target: T7, NNMT (Homo sapiens, UniProt P40261); test: selectivity, SAHH-coupled assay NNMT; format: biochemical; settings: 100 μM
T7 construct: nicotinamide as substrate
Protocol: as §3, §4, §5

PRMT1 [6] = target: T5, PRMT1; test: selectivity of YD1113/YD1290 on PRMT panel, PRMT1; format: biochemical; settings: vs YD1113
Protocol: (§6) The selectivity of compounds YD1113 and YD1290 on PRMTs were performed by Reaction Biology Corp.
(§7) Next, the selectivity of YD1113 was investigated on a panel of PRMTs at 10 μM.
(§8) After validating the benzyl urea moiety as an unconventional homocysteine mimic of SAH for PRMTs, it was hypothesized that incorporating the benzyl urea moiety into the original pan PRMT inhibitor II757 would build a potent bisubstrate inhibitor. […] To enable a stable tri-substitution, the sulfur atom with a nitrogen atom was replaced. YD1290 was synthesized following the reported methods 9, 15 and tested in a radioactivity assay for PRMTs (FIG. 6b).

PRMT1 [7] = target: T5, PRMT1; test: inhibition mechanism study on PRMT1, SAHH-coupled fluorescence; format: biochemical; settings: role: inhibitor
Protocol: The inhibition mechanism of YD1290 was study on PRMT1 with the fluorescence-based SAHH-coupled assay. Varying concentrations of SAM (from 5 to 40 μM) with 4 μM fixed concentration of H4-21 or varying concentration of H4-21 (from 4 to 32 μM) with 5 μM fixed concentration of SAM were included in reactions at concentration of YD1290 ranging from 0.15 nM to 10 μM.
All the IC50 values were determined in triplicate. Fluorescence was monitored on a BMG CLARIOstar microplate reader with excitation 380 nm and emission 505 nm. Data were processed by using GraphPad Prism software 8.0.
To confirm the potent inhibition activities of YD1290 on type I PRMTs resulting from bisubstrate characteristics, its inhibition mechanism on PRMT1 was determined through the SAHH-coupled fluorescence-based assay.

PRMT6 [8] = target: T4, PRMT6; test: selectivity of YD1113/YD1290 on PRMT panel, PRMT6; format: biochemical; settings: vs YD1113
Protocol: as §6, §7, §8

PRMT3 [9] = target: T3, PRMT3; test: selectivity of YD1113/YD1290 on PRMT panel, PRMT3; format: biochemical; settings: vs YD1113
Protocol: as §6, §7, §8
Target sequence in this assay (O60678 whole entry, species assumed, the tested form may be a part): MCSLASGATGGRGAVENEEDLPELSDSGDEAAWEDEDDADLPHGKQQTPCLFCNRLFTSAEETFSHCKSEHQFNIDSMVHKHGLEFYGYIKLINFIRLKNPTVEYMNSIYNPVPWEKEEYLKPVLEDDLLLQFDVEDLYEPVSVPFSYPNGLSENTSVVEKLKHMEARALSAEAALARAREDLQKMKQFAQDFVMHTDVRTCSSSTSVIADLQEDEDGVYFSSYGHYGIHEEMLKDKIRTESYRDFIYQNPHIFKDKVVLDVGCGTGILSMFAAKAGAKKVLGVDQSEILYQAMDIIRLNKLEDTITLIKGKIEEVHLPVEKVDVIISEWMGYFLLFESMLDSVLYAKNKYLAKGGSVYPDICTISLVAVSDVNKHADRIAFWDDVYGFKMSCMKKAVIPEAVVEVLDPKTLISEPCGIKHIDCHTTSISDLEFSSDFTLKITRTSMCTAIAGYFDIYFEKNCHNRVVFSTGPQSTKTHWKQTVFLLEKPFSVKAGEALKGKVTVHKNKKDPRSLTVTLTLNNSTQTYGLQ

NTMT1 = target: T8, NTMT1 (Homo sapiens, UniProt Q9BV86); test: selectivity, SAHH-coupled assay NTMT1; format: biochemical; settings: 100 μM
T8 construct: GPKRIA peptide as substrate
Protocol: as §3, §4, §5

type I PRMTs = test: inhibition of type I PRMTs (summary); format: biochemical
Protocol: as §6

G9a = G9a (Homo sapiens, UniProt Q96KQ7); test: selectivity, SAHH-coupled assay G9a; format: biochemical; settings: 100 μM
Protocol: as §3, §4, §5

PRMT4 [10] = target: T2, PRMT4; test: selectivity of YD1113/YD1290 on PRMT panel, PRMT4; format: biochemical
Protocol: as §6, §7, §8

PRMT8 [11] = target: T1, PRMT8; test: selectivity of YD1113/YD1290 on PRMT panel, PRMT8; format: biochemical; settings: vs YD1113
Protocol: as §6, §7, §8

PRMTs = test: radioactivity assay, all tested PRMTs; format: biochemical
Protocol: as §6, §8

T5 sequence (Q99873 whole entry, species assumed): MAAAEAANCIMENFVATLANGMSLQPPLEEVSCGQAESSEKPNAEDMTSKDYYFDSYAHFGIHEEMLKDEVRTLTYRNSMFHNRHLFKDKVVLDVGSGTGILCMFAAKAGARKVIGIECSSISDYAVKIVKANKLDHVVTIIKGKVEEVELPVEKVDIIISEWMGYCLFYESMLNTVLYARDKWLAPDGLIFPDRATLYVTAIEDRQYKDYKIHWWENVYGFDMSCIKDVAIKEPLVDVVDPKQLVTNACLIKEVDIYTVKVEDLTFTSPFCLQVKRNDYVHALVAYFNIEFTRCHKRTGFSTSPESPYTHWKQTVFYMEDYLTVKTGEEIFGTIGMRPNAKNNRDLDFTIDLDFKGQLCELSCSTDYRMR
T1 sequence (Q9NR22 whole entry, species assumed): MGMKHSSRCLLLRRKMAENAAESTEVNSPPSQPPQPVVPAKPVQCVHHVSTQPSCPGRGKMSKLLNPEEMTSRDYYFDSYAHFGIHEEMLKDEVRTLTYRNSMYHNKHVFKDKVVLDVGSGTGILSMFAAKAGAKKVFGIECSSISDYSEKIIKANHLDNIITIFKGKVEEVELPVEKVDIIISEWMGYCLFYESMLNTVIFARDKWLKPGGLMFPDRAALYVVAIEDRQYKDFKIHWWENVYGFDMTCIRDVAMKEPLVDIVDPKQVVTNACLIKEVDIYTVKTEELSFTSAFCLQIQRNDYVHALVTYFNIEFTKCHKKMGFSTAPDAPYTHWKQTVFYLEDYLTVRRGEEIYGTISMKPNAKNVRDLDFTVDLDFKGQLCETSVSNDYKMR
T4 sequence (Q96LA8 whole entry, species assumed): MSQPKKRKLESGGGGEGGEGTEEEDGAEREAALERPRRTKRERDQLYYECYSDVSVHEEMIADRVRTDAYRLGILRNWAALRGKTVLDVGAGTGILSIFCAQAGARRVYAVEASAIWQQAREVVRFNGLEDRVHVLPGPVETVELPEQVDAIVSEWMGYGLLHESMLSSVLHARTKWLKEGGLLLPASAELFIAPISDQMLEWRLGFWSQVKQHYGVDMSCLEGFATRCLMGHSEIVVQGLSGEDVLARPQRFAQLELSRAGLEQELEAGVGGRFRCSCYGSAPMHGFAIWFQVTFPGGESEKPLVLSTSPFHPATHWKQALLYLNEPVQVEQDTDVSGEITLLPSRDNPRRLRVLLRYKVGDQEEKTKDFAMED
Sequence of G9a (Q96KQ7 whole entry): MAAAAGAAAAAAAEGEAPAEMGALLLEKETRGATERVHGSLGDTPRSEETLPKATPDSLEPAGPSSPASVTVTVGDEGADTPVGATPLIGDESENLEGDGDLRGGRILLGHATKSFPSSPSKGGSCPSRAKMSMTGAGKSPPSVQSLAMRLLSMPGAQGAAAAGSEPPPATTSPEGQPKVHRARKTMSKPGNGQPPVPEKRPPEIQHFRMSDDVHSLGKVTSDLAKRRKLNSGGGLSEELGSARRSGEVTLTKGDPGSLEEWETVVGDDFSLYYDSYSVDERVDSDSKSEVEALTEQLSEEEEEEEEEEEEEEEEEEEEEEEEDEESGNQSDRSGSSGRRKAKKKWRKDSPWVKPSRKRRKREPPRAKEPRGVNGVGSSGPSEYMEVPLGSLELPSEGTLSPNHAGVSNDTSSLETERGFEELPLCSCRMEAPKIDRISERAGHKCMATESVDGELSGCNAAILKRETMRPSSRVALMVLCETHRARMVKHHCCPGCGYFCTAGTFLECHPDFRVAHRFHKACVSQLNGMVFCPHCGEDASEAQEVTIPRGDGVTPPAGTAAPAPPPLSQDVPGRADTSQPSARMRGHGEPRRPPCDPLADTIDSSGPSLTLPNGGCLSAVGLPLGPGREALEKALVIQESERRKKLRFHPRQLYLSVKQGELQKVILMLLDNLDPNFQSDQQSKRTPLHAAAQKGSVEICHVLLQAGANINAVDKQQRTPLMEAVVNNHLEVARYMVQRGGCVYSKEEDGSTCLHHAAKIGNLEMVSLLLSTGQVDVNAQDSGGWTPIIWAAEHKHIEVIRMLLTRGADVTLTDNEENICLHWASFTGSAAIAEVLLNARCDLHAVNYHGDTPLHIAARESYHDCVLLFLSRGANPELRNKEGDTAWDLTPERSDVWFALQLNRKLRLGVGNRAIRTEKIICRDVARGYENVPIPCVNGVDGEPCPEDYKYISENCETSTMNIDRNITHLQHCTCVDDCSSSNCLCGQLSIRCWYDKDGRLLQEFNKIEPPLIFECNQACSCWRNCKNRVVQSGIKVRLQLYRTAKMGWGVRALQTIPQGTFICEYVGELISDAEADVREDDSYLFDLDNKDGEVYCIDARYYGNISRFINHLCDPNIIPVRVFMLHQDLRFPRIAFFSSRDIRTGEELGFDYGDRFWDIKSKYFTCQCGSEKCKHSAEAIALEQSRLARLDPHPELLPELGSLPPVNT
T6 sequence (Q8WTS6 whole entry): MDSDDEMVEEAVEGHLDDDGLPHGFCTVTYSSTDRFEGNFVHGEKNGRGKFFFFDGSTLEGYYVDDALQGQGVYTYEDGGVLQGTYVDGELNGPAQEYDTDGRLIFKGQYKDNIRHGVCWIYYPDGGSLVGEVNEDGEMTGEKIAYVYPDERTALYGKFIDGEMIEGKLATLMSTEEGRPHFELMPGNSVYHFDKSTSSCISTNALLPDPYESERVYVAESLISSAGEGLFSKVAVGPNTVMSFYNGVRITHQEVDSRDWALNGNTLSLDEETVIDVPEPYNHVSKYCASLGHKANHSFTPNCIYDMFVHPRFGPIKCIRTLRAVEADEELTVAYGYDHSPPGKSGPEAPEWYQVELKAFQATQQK
T7 sequence (P40261 whole entry): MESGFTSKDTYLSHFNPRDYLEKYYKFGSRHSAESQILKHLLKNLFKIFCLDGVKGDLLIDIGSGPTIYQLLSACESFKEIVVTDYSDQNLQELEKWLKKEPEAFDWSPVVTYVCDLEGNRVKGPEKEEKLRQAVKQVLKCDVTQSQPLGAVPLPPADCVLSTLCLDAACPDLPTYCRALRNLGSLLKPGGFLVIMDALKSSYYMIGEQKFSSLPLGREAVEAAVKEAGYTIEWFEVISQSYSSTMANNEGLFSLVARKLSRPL
T8 sequence (Q9BV86 whole entry): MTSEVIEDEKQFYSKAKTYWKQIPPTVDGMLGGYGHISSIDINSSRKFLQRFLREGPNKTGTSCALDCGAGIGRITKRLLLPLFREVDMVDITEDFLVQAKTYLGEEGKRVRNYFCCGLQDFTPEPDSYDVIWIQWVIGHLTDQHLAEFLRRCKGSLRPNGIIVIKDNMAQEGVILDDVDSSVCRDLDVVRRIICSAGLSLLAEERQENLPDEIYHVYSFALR

In the case of `Nc1ncnc2c1ncn2[C@@H]1O[C@H](CSCCCNCc2cccc(-c3ccc(Cl)cc3)c2)[C@@H](O)[C@H]1O` [Compound 10m], the inhibition at 10 µM (PRMT8 [1]) was 73%, the “PRMT4 inhibition” value (PRMT4 [2]) was “more potent PRMT4 inhibition activity than SGC8158” and the inhibition at 10 µM (PRMT4 [2]) was 99%. For the same compound, the inhibition at 10 µM (PRMT3 [3]) was 22%, the inhibition at 10 µM (PRMT6 [4]) was 46% and the “PRMT4/7 inhibition” value (PRMT4/7) was “potent PRMT4/7 inhibitor”. For the same compound, the inhibition at 10 µM (PRMT1 [5]) was 65%.

With `CC(CN(CCCN)C[C@H]1O[C@@H](n2cnc3c(N)ncnc32)[C@H](O)[C@@H]1O)NC(=O)NCc1ccccc1` (some centres unmarked) [YD1288] the “PRMT4/5 inhibition” value (PRMT4/5) was “dual selective and potent PRMT4/5 inhibitor”.

In the case of `N=C(NCCCN(CCNC(=O)NCc1ccccc1)C[C@H]1O[C@@H](n2cnc3c(N)ncnc32)[C@H](O)[C@@H]1O)Nc1cccc(Br)c1` [YD1290], the “inhibition of SETD7” value (SETD7) was “did not display any significant inhibition”, the “inhibition of SAHH” value (SAHH) was “did not display any significant inhibition” and the “inhibition of NNMT” value (NNMT) was “did not display any significant inhibition”. The “fold potency to PRMT1 compared to YD1113” value (PRMT1 [6]) was over 80 fold, the “inhibition mechanism vs peptide substrate, PRMT1” value (PRMT1 [7]; H4-21 4 to 32 μM, SAM 5 μM fixed) was “slightly increased when the ratio of peptide/Km increased; also recorded: peptide-site competitive inhibitor of PRMT1” and the “inhibition mechanism vs SAM, PRMT1” value (PRMT1 [7]; SAM 5 to 40 μM, H4-21 4 μM fixed) was “SAM-site competitive inhibitor of PRMT1”. For the same compound, the “fold potency to PRMT6 compared to YD1113” value (PRMT6 [8]) was over 80 fold, the “fold potency to PRMT3 compared to YD1113” value (PRMT3 [9]) was over 80 fold and the “inhibition of NTMT1” value (NTMT1) was “did not display any significant inhibition”. For the same compound, the pIC50 (type I PRMTs) was over 8.30, the “inhibition of G9a” value (G9a) was “did not display any significant inhibition” and the PRMT4 activity (PRMT4 [10]; 1.5 nM, radioactivity assay) was “completely abolished PRMT4 activity”. For the same compound, the “fold potency to PRMT4 compared to YD1113” value (PRMT4 [10]; vs YD1113) was over 80 fold, the “fold potency to PRMT8 compared to YD1113” value (PRMT8 [11]) was over 80 fold and the “potency to all tested PRMTs” value (PRMTs) was “demonstrated potency to all tested PRMTs”.
